In patent US10123993B2, “Cyclic ureas as inhibitors of rock” (BRISTOL-MYERS SQUIBB COMPANY, priority 2015, dated 2018):
Like-named read-outs stand apart in the source and are kept apart here.

Assays:
ROCK2 = ROCK2 (Homo sapiens, UniProt O75116); assay: ROCK2 kinase inhibition assay (Caliper LABCHIP, FITC peptide substrate); assay type: biochemical; details: 5 μM ATP, 1.5 μM peptide substrate; value ranges
Outline: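 Rho kinase with 5 μM ATP and 1.5 μM FITC-AHA-AKRRRLSSLRA-OH peptide in HEPES pH 7.5, 20 mM MgCl2, 0.015% Brij-35, 4 mM DTT, DMSO <2%. EDTA stop; phospho and non-phospho peptide separated on LabChip. IC50 from dose-response fit.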

[1] = test system: spontaneously hypertensive rat, renal hypertensive rat and deoxycortisone acetate salt hypertensive rat models; details: cited from earlier work
[2] = test system: neointimal formation in rats; details: cited from earlier work
Dahl salt-sensitive rats = details: rat, in vivo; cited from earlier work
[3] = test system: IL-1 beta-induced coronary stenosis; details: long term treatment; cited from earlier work
rat stroke model = details: in vivo; cited from earlier work

ROCK2, sequence (O75116 whole entry, species assumed): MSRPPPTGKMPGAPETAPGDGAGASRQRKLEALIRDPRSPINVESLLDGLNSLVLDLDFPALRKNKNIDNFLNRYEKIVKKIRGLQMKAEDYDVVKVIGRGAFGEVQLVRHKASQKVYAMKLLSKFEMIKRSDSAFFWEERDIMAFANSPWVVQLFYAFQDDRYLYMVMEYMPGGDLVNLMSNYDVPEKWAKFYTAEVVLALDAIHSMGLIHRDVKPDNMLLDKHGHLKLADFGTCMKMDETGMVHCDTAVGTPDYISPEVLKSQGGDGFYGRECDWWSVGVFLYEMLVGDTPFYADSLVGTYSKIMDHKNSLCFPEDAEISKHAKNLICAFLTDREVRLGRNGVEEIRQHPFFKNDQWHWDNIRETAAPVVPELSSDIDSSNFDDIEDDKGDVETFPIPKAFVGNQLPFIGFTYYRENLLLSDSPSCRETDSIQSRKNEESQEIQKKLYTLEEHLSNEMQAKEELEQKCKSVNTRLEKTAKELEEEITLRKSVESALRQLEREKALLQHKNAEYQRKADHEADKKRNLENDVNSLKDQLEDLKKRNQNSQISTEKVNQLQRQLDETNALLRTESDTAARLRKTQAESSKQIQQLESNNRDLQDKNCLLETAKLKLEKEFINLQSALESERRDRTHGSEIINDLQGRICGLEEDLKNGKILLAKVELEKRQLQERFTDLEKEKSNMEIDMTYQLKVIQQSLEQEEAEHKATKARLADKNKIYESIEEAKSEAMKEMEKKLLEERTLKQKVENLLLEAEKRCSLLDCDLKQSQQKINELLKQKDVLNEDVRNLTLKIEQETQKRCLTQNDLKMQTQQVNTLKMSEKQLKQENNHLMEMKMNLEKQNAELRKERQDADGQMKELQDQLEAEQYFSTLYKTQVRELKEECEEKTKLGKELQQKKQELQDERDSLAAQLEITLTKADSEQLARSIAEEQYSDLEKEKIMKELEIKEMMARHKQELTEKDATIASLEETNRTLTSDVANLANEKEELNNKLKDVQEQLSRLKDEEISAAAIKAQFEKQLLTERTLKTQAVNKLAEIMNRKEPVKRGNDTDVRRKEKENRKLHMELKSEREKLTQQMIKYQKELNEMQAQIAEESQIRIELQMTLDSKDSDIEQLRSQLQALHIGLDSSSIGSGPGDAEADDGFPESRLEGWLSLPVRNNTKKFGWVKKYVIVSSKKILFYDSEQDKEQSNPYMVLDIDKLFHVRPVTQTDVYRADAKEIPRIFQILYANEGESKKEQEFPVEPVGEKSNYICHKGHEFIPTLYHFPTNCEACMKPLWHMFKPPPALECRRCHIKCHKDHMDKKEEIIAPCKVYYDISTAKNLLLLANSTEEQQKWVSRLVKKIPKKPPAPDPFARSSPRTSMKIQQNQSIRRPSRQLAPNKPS

Row | SMILES | IC50 (ROCK2) | other results
1 | COc1cc(CN2C(=O)N(c3ccc(-c4cn[nH]c4)cn3)CC2(C)C)ccc1F [Example 450, 1-(5-(1H-pyrazol-4-yl)pyridin-2-yl)-3-(4-fluoro-3-methoxybenzyl)-4,4-dimethylimidazolidin-2-one] | 2.1 to 20 nM | 
2 | CCc1cc(-n2ccn(Cc3cccc(OC)c3)c2=O)ccc1-c1cn[nH]c1 [Example 453, 1-(3-ethyl-4-(1H-pyrazol-4-yl)phenyl)-3-(3-methoxybenzyl)-1H-imidazol-2(3H)-one] | 20.1 to 200 nM | 
3 | CCc1cc(-n2ccn(Cc3cc(F)cc(OC)c3)c2=O)ccc1-c1cn[nH]c1 [Example 454, 1-(3-ethyl-4-(1H-pyrazol-4-yl)phenyl)-3-(3-fluoro-5-methoxybenzyl)-1H-imidazol-2(3H)-one] | 20.1 to 200 nM | 
4 | COc1cc(F)cc(CN2C(=O)N(c3ccc(-c4cn[nH]c4)cn3)CC2(C)C)c1 [Example 458, 1-(5-(1H-pyrazol-4-yl)pyridin-2-yl)-3-(3-fluoro-5-methoxybenzyl)-4,4-dimethylimidazolidin-2-one] | 2.1 to 20 nM | 
5 | COc1cccc(C(CO)N2CCN(c3ccc(-c4cn[nH]c4)c(F)c3)C2=O)c1 (stereo not drawn) [Example 463, 1-(3-fluoro-4-(1H-pyrazol-4-yl)phenyl)-3-(2-hydroxy-1-(3-methoxyphenyl)ethyl)imidazolidin-2-one] | 2.1 to 20 nM | 
6 | COc1cc(F)cc(CN2CCN(c3cc(C)c(-c4cn[nH]c4)cn3)C2=O)c1 [Example 464, 1-(3-fluoro-5-methoxybenzyl)-3-(4-methyl-5-(1H-pyrazol-4-yl)pyridin-2-yl)imidazolidin-2-one] | 20.1 to 200 nM | 
7 | COc1cccc(CN2CCN(c3cc(C)c(-c4cn[nH]c4)cn3)C2=O)c1 [Example 465, 1-(3-methoxybenzyl)-3-(4-methyl-5-(1H-pyrazol-4-yl)pyridin-2-yl)imidazolidin-2-one] | 20.1 to 200 nM | 
8 | COc1cccc(CN2CCN(c3ccc(-c4cn[nH]c4)c(OC)n3)C2=O)c1 [Example 466, 1-(6-methoxy-5-(1H-pyrazol-4-yl)pyridin-2-yl)-3-(3-methoxybenzyl)imidazolidin-2-one] | < 2 nM | 
9 | COc1cc(F)cc(CN2CCN(c3ccc(-c4cn[nH]c4)c(OC)n3)C2=O)c1 [Example 467, 1-(3-fluoro-5-methoxybenzyl)-3-(6-methoxy-5-(1H-pyrazol-4-yl)pyridin-2-yl)imidazolidin-2-one] | < 2 nM | 
10 | COc1cc(F)cc(CN2CCN(c3ccc(-c4cn[nH]c4)c(C4CC4)c3)C2=O)c1 [Example 469, 1-(3-cyclopropyl-4-(1H-pyrazol-4-yl)phenyl)-3-(3-fluoro-5-methoxybenzyl)imidazolidin-2-one] | 20.1 to 200 nM | 
11 | COc1cc(F)cc(CN2CCN(c3cc(OC)c(-c4cn[nH]c4)cn3)C2=O)c1 [Example 472, 1-(3-fluoro-5-methoxybenzyl)-3-(4-methoxy-5-(1H-pyrazol-4-yl)pyridin-2-yl)imidazolidin-2-one] | 2.1 to 20 nM | 
12 | CCOc1cc(N2CCN(Cc3cccc(OC)c3)C2=O)ncc1-c1cn[nH]c1 [Example 473, 1-(4-ethoxy-5-(1H-pyrazol-4-yl)pyridin-2-yl)-3-(3-methoxybenzyl)imidazolidin-2-one] | 20.1 to 200 nM | 
13 | COc1cc(Cn2ccn(-c3ccc(-c4cn[nH]c4)c(OC)n3)c2=O)ccc1F [Example 477, 1-(4-fluoro-3-methoxybenzyl)-3-(6-methoxy-5-(1H-pyrazol-4-yl)pyridin-2-yl)-1H-imidazol-2(3H)-one] | < 2 nM | 
14 | COc1cc(F)cc(Cn2ccn(-c3ccc(-c4cn[nH]c4)c(OC)n3)c2=O)c1 [Example 478, 1-(3-fluoro-5-methoxybenzyl)-3-(6-methoxy-5-(1H-pyrazol-4-yl)pyridin-2-yl)-1H-imidazol-2(3H)-one] | < 2 nM | 
15 | C[C@@H](N)[C@H]1CC[C@H](C(=O)Nc2ccncc2)CC1 [Example Y-27632] |  | blood pressure ([1]; control rats): only a minor effect on blood pressure; blood pressure ([1]; three rat models of hypertension): significantly decrease blood pressure; neointimal formation [2]: inhibited neointimal formation; ventricular hypertrophy, fibrosis and function (Dahl salt-sensitive rats): improve ventricular hypertrophy, fibrosis and function
16 | O=S(=O)(c1cccc2cnccc12)N1CCCNCC1 [fasudil] |  | coronary constrictive remodeling [3]: promote a regression of coronary constrictive remodeling; coronary stenosis [3]: progressively reduce coronary stenosis; infarct size and neurologic deficit (rat stroke model): reduce both the infarct size and neurologic deficit

More lines, main results first:

Row | IC50 (ROCK2) | SMILES | other results
17 | < 2 nM | COc1cccc(CN2C(=O)N(c3ccc(-c4cn[nH]c4)cn3)CC2(C)C)c1 [Example 451, 1-(5-(1H-pyrazol-4-yl)pyridin-2-yl)-3-(3-methoxybenzyl)-4,4-dimethylimidazolidin-2-one] | 
18 | 2.1 to 20 nM | CC1(C)CN(c2ccc(-c3cn[nH]c3)cn2)C(=O)N1Cc1cccc(OCC2CC2)c1 [Example 452, 1-(5-(1H-pyrazol-4-yl)pyridin-2-yl)-3-(3-(cyclopropylmethoxy)benzyl)-4,4-dimethylimidazolidin-2-one] | 
19 | 200 to 2000 nM | CCc1cc(-n2ccn(Cc3cccc(OCC4CC4)c3)c2=O)ccc1-c1cn[nH]c1 [Example 455, 1-(3-(cyclopropylmethoxy)benzyl)-3-(3-ethyl-4-(1H-pyrazol-4-yl)phenyl)-1H-imidazol-2(3H)-one] | 
20 | 20.1 to 200 nM | COc1cccc([C@H](C)N2CCN(c3ccc(-c4cn[nH]c4)cc3)C2=O)c1 [Example 456, (S)-1-(4-(1H-pyrazol-4-yl)phenyl)-3-(1-(3-methoxyphenyl)ethyl)imidazolidin-2-one] | 
21 | 20.1 to 200 nM | COc1cccc(CN2CCN(c3ccc(-c4cn[nH]c4)c(C4CC4)c3)C2=O)c1 [Example 468, 1-(3-cyclopropyl-4-(1H-pyrazol-4-yl)phenyl)-3-(3-methoxybenzyl)imidazolidin-2-one] | 
22 | 2.1 to 20 nM | COc1cccc(CN2C(=O)N(c3ccc(-c4cn[nH]c4)cn3)C[C@@H]2CO)c1 [Example 474, (R)-1-(5-(1H-pyrazol-4-yl)pyridin-2-yl)-4-(hydroxymethyl)-3-(3-methoxybenzyl)imidazolidin-2-one] | 
23 | < 2 nM | COc1nc(N2CCN(Cc3cccc(OCC4CC4)c3)C2=O)ccc1-c1cn[nH]c1 [Example 475, 1-(3-(cyclopropylmethoxy)benzyl)-3-(6-methoxy-5-(1H-pyrazol-4-yl)pyridin-2-yl)imidazolidin-2-one] | 
24 | 2.1 to 20 nM | O=C1N(c2ccc(-c3cn[nH]c3)cc2)C[C@@H](CO)N1Cc1cccc(OCC2CC2)c1 [Example 476, (S)-1-(4-(1H-pyrazol-4-yl)phenyl)-3-(3-(cyclopropylmethoxy)benzyl)-4-(hydroxymethyl)imidazolidin-2-one] | 
25 | 20.1 to 200 nM | COc1cccc(C(C)(C(N)=O)N2CCN(c3ccc(-c4cn[nH]c4)cc3)C2=O)c1 (stereo not drawn) [compound 306, 2-(3-(4-(1H-pyrazol-4-yl)phenyl)-2-oxoimidazolidin-1-yl)-2-(3-methoxyphenyl)propanamide] | 
